Test results taken from ChEMBL document CHEMBL1137753, “Insecticidal heterolignans--tubuline polymerization inhibitors with activity against chewing pests” (Bioorg Med Chem, 2009).
The source made the active and inactive calls.

Columns and labels:
Spodoptera frugiperda = test: Insecticidal activity against Spodoptera frugiperda larvae in disk of maize leaf treated as spray; assay type: functional, organism-based
Phaedon cochleariae = test: Insecticidal activity against Phaedon cochleariae larvae in disk of Chinese cabbage leaf treated as spray; assay type: functional, organism-based

Structure (SMILES)	Activity (Spodoptera frugiperda)	Activity (Phaedon cochleariae)
COc1cc(OC)cc(C2C3=C(CN(C(=O)OC(C)(C)C)C3=O)Nc3cc4c(cc32)OCO4)c1 (stereo not drawn)	inactive	inactive
COc1cc(OC)cc(C2C3=C(Nc4cc5c(cc42)OCO5)C(C)(C)COS3(=O)=O)c1 (stereo not drawn)	inactive	inactive
O=C1C2=C(C(=O)C1c1ccccc1)C(c1cccc(Cl)c1)c1cc3c(cc1N2)OCO3 (stereo not drawn)	inactive	inactive
Cc1ccc2c(c1)N(C)C1=C(C(=O)OC1)C2c1ccc(Cl)cc1 (stereo not drawn)	inactive	inactive
COc1cc(OC)cc(C2C3=C(Nc4cc5c(cc42)OCO5)C(C)(CC(C)C)NC3=O)c1 (stereo not drawn)	inactive	inactive
COc1cc(OC)cc(C2C3=C(Nc4cc5c(cc42)OCO5)C(C)(C)COC3=O)c1 (stereo not drawn)	inactive	inactive
COc1cc(OC)cc(C2(C)C3=C(COC3=O)Nc3cc4c(cc32)OCO4)c1 (stereo not drawn)	inactive	inactive
CC1(C)CC(=O)C2=C(C1)Nc1cc3c(cc1C2c1cccc(Cl)c1)OCO3 (stereo not drawn)	inactive	inactive
COc1cc(OC)cc(C2C3=C(COC3=O)Nc3cc(OC(F)(F)F)ccc32)c1 (stereo not drawn)	inactive	inactive
O=C1OC2(CCCCC2)C2=C1C(c1cccc(Cl)c1)c1cc3c(cc1N2)OCO3 (stereo not drawn)	inactive	inactive
OC1=C2C(=Nc3cc4c(cc3C2c2ccccc2)OCO4)CO1 (stereo not drawn)		inactive
O=C1OCC2=C1C(c1cccc(OC(F)F)c1)c1cc3c(cc1O2)OCO3 (stereo not drawn)	inactive	inactive
O=C1OCC2=C1C(c1ccc3c(c1)OC(F)(F)O3)c1cc3c(cc1N2)OCO3 (stereo not drawn)	inactive	inactive
COc1cc(OC)cc(C2C3=C(COC3=O)Nc3cc(OCc4ccccc4)c(Br)cc32)c1 (stereo not drawn)	inactive	inactive
COc1cc(OC)cc(C2C3=C(COC3=O)Nc3ccc(OC(C)C)cc32)c1 (stereo not drawn)	inactive	inactive
COc1cc(OC)cc(C2C3=C(COC3=O)Nc3cc(C(C)(C)C)ccc32)c1 (stereo not drawn)	inactive	inactive
COc1cc(OC)cc(C2C3=C(COC3=O)Nc3cc(OCc4ccccc4)ccc32)c1 (stereo not drawn)	inactive	inactive
COc1cc(OC)cc(C2C3=C(COC3=O)Nc3cc(OC(F)F)c(OC(F)F)cc32)c1 (stereo not drawn)	inactive	inactive
COc1cc2c(cc1OC)C(c1cc(OC)c(OC)c(OC)c1)C1=C(O)OCC1=N2 (stereo not drawn)	inactive	inactive
COc1cc(OC)cc(C2C3=C(CN(C(C)C)C3=O)Nc3cc4c(cc32)OCO4)c1 (stereo not drawn)	inactive	inactive
O=C1OCC2=C1C(c1cccc(Cl)c1)c1cc3c(cc1O2)OCO3 (stereo not drawn)	inactive	inactive
COc1cc(OC)cc(C2C3=C(COC3=O)Nc3cc(-c4ccccc4)ccc32)c1 (stereo not drawn)	inactive	inactive
COc1cc(OC)cc(C2C3=C(COC3=O)Nc3cc(OC)c(Cl)cc32)c1 (stereo not drawn)	inactive	inactive
O=C1OCC2=C1C(c1cccc(OC(F)(F)F)c1)c1cc3c(cc1O2)OCO3 (stereo not drawn)	inactive	inactive
COc1cc(OC)cc(C2C3=C(COC3=O)Nc3cc(Oc4ccccc4)ccc32)c1 (stereo not drawn)	inactive	inactive
COc1cc(C2C3=C(COC3=O)Nc3cc(Cl)ccc32)cc(OC)c1OC (stereo not drawn)	inactive	inactive
O=C1OCC2=C1C(c1cccc(Cl)c1)c1cc(Cl)ccc1N2 (stereo not drawn)	inactive	inactive

Structure (SMILES)	Activity (Spodoptera frugiperda)	Activity (Phaedon cochleariae)
COc1ccc(C2C3=C(O)OCC3=Nc3cc4c(cc32)OCO4)cc1 (stereo not drawn)	inactive	inactive
COc1cccc(C2C3=C(COC3=O)Nc3cc4c(cc32)OCO4)c1OC (stereo not drawn)	inactive	inactive
O=C1OCC2=C1C(c1cc(Cl)cc(Cl)c1)c1cc3c(cc1O2)OCO3 (stereo not drawn)	inactive	inactive
COc1cc(OC)cc(C2C3=C(COC3=O)Nc3cc(C)cc(C)c32)c1 (stereo not drawn)	inactive	inactive
Clc1cccc(C2C3=C(CCCC3)Nc3cc4c(cc32)OCO4)c1 (stereo not drawn)	inactive	inactive
CCOc1cc2c(cc1OCC)C(c1cc(OC)cc(OC)c1)C1=C(COC1=O)N2 (stereo not drawn)	inactive	inactive
COc1cc(OC)cc(C2C3=C(Nc4cc5c(cc42)OCO5)C(C)(C)ON(C)C3=O)c1 (stereo not drawn)	inactive	inactive
O=C1OCC2=C1C(c1cccc(Cl)c1Cl)c1cc3c(cc1N2)OCO3 (stereo not drawn)	inactive	inactive
COc1cc(OC)cc(C2C3=C(COC3=O)Oc3c2ccc(OC)c3OC)c1 (stereo not drawn)	inactive	inactive
CC(C)(C)OC(=O)N1CC2=C(C1=O)C(c1cccc(Cl)c1)c1cc3c(cc1N2)OCO3 (stereo not drawn)	inactive	
COc1cc(OC)cc(C2C3=C(COC3=O)Nc3cc(C)c(C)cc32)c1 (stereo not drawn)	inactive	inactive
O=C1OCC2=C1C(c1cccc(OCCO)c1)c1cc3c(cc1N2)OCO3 (stereo not drawn)		inactive
COc1ccc2c(c1)OC1=C(C(=O)OC1)C2c1cccc(Cl)c1 (stereo not drawn)	inactive	inactive
COc1cc(OC)cc(C2C3=C(COC3=O)Nc3c(OC)ccc(OC)c32)c1 (stereo not drawn)	inactive	inactive
O=S1(=O)CCCC2=C1C(c1cccc(Cl)c1)c1cc3c(cc1N2)OCO3 (stereo not drawn)	inactive	inactive
COc1cc(OC)cc(C2C3=C(COC3=O)Nc3cc(OC)c(OC)c(OC)c32)c1 (stereo not drawn)	inactive	inactive
COc1cc(OC)cc(C2C3=C(COC3=O)Nc3cc(O)ccc32)c1 (stereo not drawn)	inactive	inactive
COc1cc(OC)cc(C2C3=C(COC3=O)Oc3cc(OC)ccc32)c1 (stereo not drawn)	inactive	inactive
CCN1C2=C(C(=O)OC2)C(c2cc(OC)cc(OC)c2)c2cc(OC)c(OC)cc21 (stereo not drawn)	inactive	inactive
O=S1(=O)CCC2=C1C(c1cccc(Cl)c1)c1cc3c(cc1N2)OCO3 (stereo not drawn)	inactive	inactive
COc1cc2c(cc1OC)N(C)C1=C(C(=O)OC1)C2c1cc(OC)c(OC)c(OC)c1 (stereo not drawn)	inactive	inactive
O=C1OCC2=C1C(c1cccc(Br)c1)c1cc3c(cc1O2)OCO3 (stereo not drawn)	inactive	inactive
COc1cc(OC)cc(C2C3=C(COC3=O)Nc3c(C)cc(C)cc32)c1 (stereo not drawn)	inactive	inactive
COc1cc(OC)cc(C2C3=C(CCCC3=O)Nc3cc4c(cc32)OCO4)c1 (stereo not drawn)	inactive	inactive
COc1cc(C2(C)C3=C(COC3=O)Nc3cc(Cl)ccc32)cc(OC)c1OC (stereo not drawn)	inactive	inactive
CC1(c2cccc(Cl)c2)C2=C(COC2=O)Nc2ccc(Cl)cc21 (stereo not drawn)	inactive	inactive
